Assay results: US20250044294A1, “COMPOSITION AND METHOD OF TREATING A CANCER THROUGH AFFECTING MEMBRANE RECEPTORS OF CANCER CELLS AND THEIR DERIVED EXTRACELLULAR VESICLES” (National Yang Ming Chiao Tung University, priority 2023, published 2025)
Where two headings read alike, the source gives them in different places.

Columns and labels:
[1] = test system: BEAS-2B and CL141 cells; assay: Transwell cell migration with NSCLC-derived secretomes and EVs; format: cell-based, human
[2] = test system: AKT activation; assay: Western blotting of AKT activation in NSCLC cells (A549); format: cell-based, human; details: 15 μM 30 min, pre-treatment and post-treatment, EGF 10 ng/mL 15 min
Procedure: DMSO was used as a vehicle control. For EGF stimulation, cells were incubated with 10 ng/mL with continuous drugs treatment for 15 min at 37° C.
Cells or EVs were lysed in RIPA lysis buffer (containing 50 mM Tris-HCl, 1% NP-40, 150 mM NaCl, 0.1% SDS, 1 mM PMSF, 1 mM Na3VO4) with complete protease and protease inhibitor cocktail (1:1000) (Sigma-Aldrich). The protein quantitation is analyzed by comparing to 2 mg/ml Bovine serum albumin (BSA). Prepare the cell sample with one-tenth of dilution and the EV sample without dilution. Next, prepare all sample to 30 ul then put 10 μl each well in 96-well plates. Protein concentrations were then determined using the BCA assay kit (Thermo, USA) according to the manufacturer's instructions. Then, the same amounts of protein lysates from cells and EVs were loaded onto 8-12% SDS polyacrylamide gels and subjected to electrophoresis at 80-100 V, followed by transferring the proteins to 0.22 or 0.45 μm poly-vinylidene fluoride membranes (Millipore). The membranes were blocked with 5% skimmed milk in PBST (Tris-buffered saline containing Tween-20) for 1 h at room temperature and then washed 3 times (10 minutes for each time) with TBST (1M Tris-HCL pH7.5, NaCl, Tween 20 in ddH2O). […] The membrane was exposed using enhanced chemiluminescence reagents and analyzed using the Fujifilm LAS4000 luminescent image analysis system.

[3] = target: T1, EGFR-p-EGFR protein-protein interactions (Homo sapiens, UniProt P00533); format: cell-based; design: endogenous in cells; host or cells: HSC3 and SAS cells; details: HSC3 and SAS; pre-treatment 15 μM 30 min, then EGF 10 ng/mL 15 min
T1 sequence (P00533 25-1210): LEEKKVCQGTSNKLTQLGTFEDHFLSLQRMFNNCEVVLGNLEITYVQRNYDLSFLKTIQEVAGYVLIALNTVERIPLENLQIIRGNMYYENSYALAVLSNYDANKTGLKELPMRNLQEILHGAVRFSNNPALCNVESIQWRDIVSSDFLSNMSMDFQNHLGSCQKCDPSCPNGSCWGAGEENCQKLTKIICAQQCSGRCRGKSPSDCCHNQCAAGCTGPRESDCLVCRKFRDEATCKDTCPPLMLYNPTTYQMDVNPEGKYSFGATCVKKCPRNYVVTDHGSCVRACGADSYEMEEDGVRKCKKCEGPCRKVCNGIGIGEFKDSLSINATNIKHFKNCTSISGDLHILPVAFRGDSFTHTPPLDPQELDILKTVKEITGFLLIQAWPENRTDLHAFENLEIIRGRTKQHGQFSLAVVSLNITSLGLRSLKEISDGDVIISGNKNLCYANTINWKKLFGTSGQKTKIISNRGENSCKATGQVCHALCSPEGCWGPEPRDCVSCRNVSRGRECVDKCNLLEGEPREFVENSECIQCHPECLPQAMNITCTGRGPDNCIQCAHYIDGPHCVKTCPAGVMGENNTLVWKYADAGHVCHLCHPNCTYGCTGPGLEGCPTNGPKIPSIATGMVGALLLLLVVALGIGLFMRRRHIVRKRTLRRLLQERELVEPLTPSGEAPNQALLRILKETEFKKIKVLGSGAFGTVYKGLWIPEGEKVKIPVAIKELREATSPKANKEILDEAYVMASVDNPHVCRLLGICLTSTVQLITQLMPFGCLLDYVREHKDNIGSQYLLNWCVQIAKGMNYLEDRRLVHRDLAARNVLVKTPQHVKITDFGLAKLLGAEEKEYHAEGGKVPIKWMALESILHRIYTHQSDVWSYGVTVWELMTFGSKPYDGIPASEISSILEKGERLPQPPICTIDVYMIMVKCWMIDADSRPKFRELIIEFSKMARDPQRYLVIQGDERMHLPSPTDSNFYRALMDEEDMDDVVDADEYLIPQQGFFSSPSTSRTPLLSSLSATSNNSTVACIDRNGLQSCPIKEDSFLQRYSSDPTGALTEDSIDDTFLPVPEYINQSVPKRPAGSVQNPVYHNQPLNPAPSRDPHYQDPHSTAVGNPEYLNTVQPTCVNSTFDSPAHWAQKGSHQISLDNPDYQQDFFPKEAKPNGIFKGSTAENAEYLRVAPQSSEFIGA

[4] = test system: PDAC cells (BxPC-3, PANC-1, AsPC-1); assay: Transwell migration assay of PDAC cells; format: cell-based, human; details: compared to gemcitabine treatment
[5] = test system: 3R-4 and 3R-5-1 tumoroids; assay: Protein expression in pancreatic cancer patient-derived tumoroids (western blotting, immunofluorescence); format: cell-based, human; details: 72-hour treatment
[6] = test system: BxPC-3 cells; assay: Laminin-induced cell proliferation (SRB); format: cell-based, human; details: 48 hours
[7] = test system: H6C7 cells and WI-38 cells; assay: Co-culture cell migration with PDAC-derived secretomes; format: cell-based, human
Procedure: In the transwell migration assay, cells were seeded in upper chambers of Transwell plates (Transwell® Permeable Support, 6.5 mm insert, 24 well plate, 8.0 μm pore polyester membrane with sterile, Corning, #3464) in serum-free (SF) medium and seeded 5×10^4-1×10^5 cells per well, while lower chambers were added medium with 10% FBS as an attractant. Drugs were treated in both upper and lower chambers, and incubated on the 24-well plate at 37° C. for 16-24 hours. The cells were fix with 4% paraformaldehyde (PFA, SIGMA, #F8775) for 10 minutes and staining with 1% crystal violet (MERCK, 1 g Crystal violet powder dissolved in 75 ml ddH2O and 25 ml […] then filters by 0.45 μm filter) for 0.5 hours. After drying the insert completely, take at least 3 cell pictures randomly in every sample by microscope and count the number of cells by Image J.
To initiate this exploration, a transwell migration assay in vitro was performed to assess the migration ability of PDAC cells. […] To achieve this, a co-culture cell migration system was established to examine the behavioral changes in normal cells treated with PDAC-derived secretomes.
For the cell line selection, the H6C7 cell line, derived from normal human pancreatic duct epithelial (HPDE) cells and immortalized, was employed to investigate the interactions between PDAC cells and human pancreatic duct cells. This cell line serves as a valuable tool for studying the molecular and cellular interactions that occur between PDAC cells and their surrounding pancreatic ductal epithelial cells. Additionally, to simulate the lung tissue environment and validate PDAC cells with high metastatic potential to the lung, human lung fibroblasts known as WI-38 cells were chosen as a relative normal cell model. By utilizing this model, the interactions between PDAC cells and the lung microenvironment can be examined and assessed.

[8] = test system: integrin α6/β4; assay: Western blotting of integrin α6/β4 on PDAC-derived EVs; format: cell-based, human; details: EVs derived from BxPC-3 and PANC-1 cells; short-term treatment
[9] = test system: integrin α6/β4 on BxPC-3-derived EVs; assay: Laminin coating wound healing assay with BxPC-3-derived EVs; format: cell-based, human; details: laminin coating 1 μg/cm^2; EVs from PCP-treated BxPC-3 cells
Procedure: The culture inserts (ibidi, #80209) was put on 6 well dishes (2 inserts for each well), irradiated UV for 20 minutes and cells were seeded into the well of the insert and incubating 24 hours. The insert was removed gently and washed twice with PBS to remove the old medium and cell and be observed the gap which was formed by the insert through the microscope and captured the picture of the gap at 0 hours. After I captured of the gap, different treatments were added and incubated for 16 hours. The result was observed by the microscope and quantified by Image J.
In this assay, H6C7 cells were seeded in the wound healing inserts with or without 1 μg/cm^2 laminin coating in the six-well plate. Once the cells were attached, the wound healing inserts were removed, and H6C7 cells were exposed to BxPC-3-derived EVs and PCP-treated BxPC-3 cell-derived EVs.

[10] = target: T2, EGFR-MET protein-protein interactions (Homo sapiens, UniProt P00533+P08581); format: cell-based; details: HSC3; pre-treatment 15 μM 30 min, then EGF 10 ng/mL 15 min
T2 construct: endogenous in cells; host or cells: HSC3 cells
T2 sequence (P00533 25-1210): as above
T2 sequence (P08581 308-1390 limits assumed): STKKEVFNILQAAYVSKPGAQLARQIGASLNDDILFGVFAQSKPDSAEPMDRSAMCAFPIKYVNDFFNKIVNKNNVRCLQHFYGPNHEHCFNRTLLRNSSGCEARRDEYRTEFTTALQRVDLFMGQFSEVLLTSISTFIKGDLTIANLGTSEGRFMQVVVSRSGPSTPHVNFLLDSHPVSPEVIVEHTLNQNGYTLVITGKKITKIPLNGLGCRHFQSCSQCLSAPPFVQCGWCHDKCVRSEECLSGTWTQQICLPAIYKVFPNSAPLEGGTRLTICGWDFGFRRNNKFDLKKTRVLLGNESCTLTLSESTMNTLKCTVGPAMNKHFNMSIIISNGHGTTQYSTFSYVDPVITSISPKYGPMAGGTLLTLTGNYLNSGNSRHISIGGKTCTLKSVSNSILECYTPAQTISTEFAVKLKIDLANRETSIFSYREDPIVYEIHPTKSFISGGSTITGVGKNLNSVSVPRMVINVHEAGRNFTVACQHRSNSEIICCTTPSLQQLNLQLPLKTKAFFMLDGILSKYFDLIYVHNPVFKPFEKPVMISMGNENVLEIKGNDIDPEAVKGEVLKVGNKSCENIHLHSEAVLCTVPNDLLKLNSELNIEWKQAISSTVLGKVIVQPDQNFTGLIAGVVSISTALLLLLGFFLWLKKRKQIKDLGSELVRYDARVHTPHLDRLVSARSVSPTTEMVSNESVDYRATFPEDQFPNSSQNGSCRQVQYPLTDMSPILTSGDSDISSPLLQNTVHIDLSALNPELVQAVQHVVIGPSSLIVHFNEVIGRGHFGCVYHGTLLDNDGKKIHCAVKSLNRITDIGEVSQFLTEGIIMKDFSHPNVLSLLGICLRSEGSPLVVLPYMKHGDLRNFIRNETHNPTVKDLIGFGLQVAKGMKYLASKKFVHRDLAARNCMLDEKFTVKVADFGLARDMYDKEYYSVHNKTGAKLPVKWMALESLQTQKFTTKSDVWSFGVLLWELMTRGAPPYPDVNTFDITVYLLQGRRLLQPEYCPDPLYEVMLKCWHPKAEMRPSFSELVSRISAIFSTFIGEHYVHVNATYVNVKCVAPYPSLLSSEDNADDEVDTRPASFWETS

[11] = test system: AKT activation; assay: Western blotting of AKT activation in PDAC cells; format: cell-based, human; details: 20 μM, 6 hours
Procedure: Cells or EVs were lysed in RIPA lysis buffer (containing 50 mM Tris-HCl, 1% NP-40, 150 mM NaCl, 0.1% SDS, 1 mM PMSF, 1 mM Na3VO4) with complete protease and […] (1:1000) (Sigma-Aldrich). The protein quantitation is analyzed by comparing to 2 mg/ml Bovine serum albumin (BSA). Prepare the cell sample with one-tenth of dilution and the EV sample without dilution. Next, prepare all sample to 30 ul then put 10 μl each well in 96-well plates. Protein concentrations were then determined using the BCA assay kit (Thermo, USA) according to the manufacturer's instructions. Then, the same amounts of protein lysates from cells and EVs were loaded onto 8-12% SDS polyacrylamide gels and subjected to electrophoresis at 80-100 V, followed by transferring the proteins to 0.22 or 0.45 μm poly-vinylidene fluoride membranes (Millipore). The membranes were blocked with 5% skimmed milk in […] (Tris-buffered saline containing Tween-20) for 1 h at room temperature and then washed 3 times (10 minutes for each time) with TBST (1M Tris-HCL pH7.5, NaCl, Tween 20 in ddH2O). After the step of washing, probed with antibodies specific for EV-enriched markers at […] overnight. […] The membrane was exposed using enhanced chemiluminescence reagents and analyzed using the Fujifilm LAS4000 luminescent image analysis system. […]

[12] = target: T1, EGFR-p-EGFR protein-protein interactions; assay: Proximity ligation assay in PDAC cells (BxPC-3); format: cell-based; design: endogenous in cells; details: pre-treatment 15 μM 30 min, then EGF 10 ng/mL 15 min
[13] = test system: BxPC-3 cell-derived EVs; assay: NanoFCM analysis of EV subpopulations from BxPC-3 cells; format: cell-based, human
Procedure: EV samples containing 3×10^9 particles were incubated with diluted antibodies (1:1000), including FITC-anti-CD9 antibodies, PE-anti-CD63 antibodies, and APC-anti-integrin β4 antibodies, for 30 minutes in a 37° C. water bath. Following the incubation period, an Amicon® Ultra Centrifugal Filter with a 100 kDa molecular weight cutoff (MWCO) was used and rinsed with 1× PBS buffer. The samples were centrifuged at 4000×g for 5 minutes, with the centrifugation process repeated three times. After centrifugation, the samples were retrieved and diluted 10-100 times for detecting the expression levels of EV surface proteins by NanoFCM. The results were analyzed using Kaluza Analysis Software.

[14] = target: T3, EGFR-HER2 protein-protein interactions (Homo sapiens, UniProt P00533+P04626); format: cell-based; details: HSC3 and SAS; pre-treatment 15 μM 30 min, then EGF 10 ng/mL 15 min
T3 construct: endogenous in cells; host or cells: HSC3 and SAS cells

[15] = 3R-4 tumoroids, western blotting

SMILES: CN1CCN(CCCN2c3ccccc3Sc3ccc(Cl)cc32)CC1 [PCP, Prochlorperazine]
- migratory capability induced by NSCLC-derived secretomes ([1]; BEAS-2B and CL141, secretomes from H441 cells): inhibitory effect
- migratory capability induced by NSCLC-derived EVs ([1]; treated cells with NSCLC-derived EVs): could downregulate this increased migratory capability
- AKT activation [2]: effectively suppressed AKT activation
- EGFR-p-EGFR protein-protein interactions [3]: could suppress EGFR-p-EGFR protein-protein interactions
- migration ability of PDAC cells [4]: significantly suppressed
- expression levels of CD9 and integrin β4 ([5]; 3R-4 and 3R-5-1 tumoroids, immunofluorescence): also inhibited the expression levels of CD9 and integrin β4
- expression levels of GPC1 [5, 15]: unchanged expression levels of GPC1
- expression levels of integrin α6/β4, CD9, EGFR, HER2, HER3 [5, 15]: inhibited the expression levels
- laminin-induced cell proliferation rate ([6]; 1 μg/cm^2 laminin): reversed the increased cell proliferation rate
- drug sensitivity to PCP after laminin binding ([6]; compared to the vehicle group): significantly higher increase in drug sensitivity
- migratory capability of WI-38 cells ([7]; AsPC-1-derived secretomes): comparatively weaker effect
- migratory capability of WI-38 cells ([7]; BxPC-3-derived secretomes): strongest inhibition
- migratory capability of WI-38 cells ([7]; PANC-1-derived secretomes): least effect
- migratory behavior of H6C7 cells ([7]; co-culture with BxPC-3-derived secretomes): significantly suppressed
- integrin α6/β4 protein expression on EVs [8]: inhibited integrin α6/β4 protein expression
- functional activity of integrin α6/β4 on EVs (migration of H6C7 cells) [9]: significantly inhibited
- EGFR-MET protein-protein interactions [10]: could suppress EGFR-MET protein-protein interactions
- AKT activation [11]: suppressed AKT activation
- EGFR-p-EGFR protein-protein interactions [12]: could suppress
- co-expression levels of CD9 and integrin β4 proteins on ITGB4+CD9+ EVs [13]: downregulated
- secretion of CD9-EVs [13]: significantly downregulated
- secretion of CD63-EVs [13]: upregulating
- secretion of ITGB4+CD9+ EVs [13]: significantly suppressed
- EGFR-HER2 protein-protein interactions [14]: could suppress EGFR-HER2 protein-protein interactions
